Like-named read-outs stand apart in the source and are kept apart here.

In series [1] the test system is T-lymphoblastic leukemia cell line CEM. Put plainly: In vitro cytotoxic activity (metabolisation of Calcein AM). The format is cell-based, human. To be noted: CEM cells, 72 hours incubation, called GI50, read-out: Cell line tested/IC50 (μmol/L) CEM. The source says: (§1) In vitro Cytotoxic Activity (Metabolisation of Calcein AM). Because toxic compounds negatively influence metabolic processes of cells, many standard cytotoxicity assays are based on measurement of metabolisation rate of various artificial substrates. Resulting product is then quantified, for example, by means of spectrometry. The assays can be easily modified for use in 96-well plates. For evaluation of cytotoxicity of the 6,8-disubstituted purines of this invention, a microtiter assay based on quantification of metabolisation of Calcein AM was used. The assay is widely used in drug screening programs and in chemosensitivity testing. In live cells, Calcein AM is enzymatically hydrolysed and accumulation of resulting calcein is manifested by green fluorescence.
(§2) The following human cell lines were used for routine screening of the compounds: normal diploid fibroblasts BJ, T-lymphoblastic leukemia cell line CEM, promyelocytic leukemia cell line HL-60, erytroid leukemia cell line K-562, breast carcinoma cell line MCF-7, osteosarcoma cell line HOS and melanoma cell line G-361. The cells were maintained in Nunc/Corning 80 cm^2 plastic tissue culture flasks and cultured in cell culture medium (DMEM with 5 g/l glucose, 2 mM glutamine, […] penicillin, 100 mmg/ml streptomycin, 10% fetal calf serum and sodium bicarbonate).
(§3) The cell suspensions were prepared and diluted according to the particular cell type and the expected target cell density (2.500-30.000 cells per well based on cell growth characteristics) and pipetted (80 μl) into 96-well plates. Inoculates were allowed a pre-incubation period of 24 hours at 37° C. and 5% CO2 for stabilization. Tested compound was added in total volume of […] of water at time zero. Usually, test compound was evaluated at six 3-fold dilutions. In routine testing, the highest concentration tested was 100 μM, but it could have been adjusted because of limited solubility of a compound. All drug concentrations were tested in triplicates.
(§4) Incubations of cells with the test compounds lasted for 72 hours at 37° C., in 5% CO2 atmosphere and 100% humidity. At the end of incubation period Calcein AM in PBS was added into final concentration of 1 μg/ml. After another 1 hour of incubation fluorescence (FD) was measured with the Labsystem FIA Reader Fluoroscan Ascent (UK). Growth inhibition (GI) was estimated using the following equitation: GI=(mean FDdrug exposed wells−mean FDblank)/(mean FDcontrol wells−mean FDblank)×100%. The GI50 value, the drug concentration causing 50% reduction of Calcein AM conversion, was calculated from the obtained dose response curves.

Series [2] concerns breast carcinoma cell line MCF-7. The series is described as above. The format is cell-based, human. To be noted: MCF7 cells, 72 hours incubation, called GI50, read-out: Cell line tested/IC50 (μmol/L) MCF7.
Text: as §1, §2, §3, §4

Series [3] has as its system erytroid leukemia cell line K-562. The series is described as above. The format is cell-based, human. To be noted: 72 hours incubation, called GI50, read-out: Cell line tested/IC50 (μmol/L) K-562.
Text: as §1, §2, §3, §4

In series [4] the test system is melanoma cell line G-361. The series is described as above. The format is cell-based, human. To be noted: G-361 cells, 72 hours incubation, called GI50, read-out: Cell line tested/IC50 (μmol/L) G-361.
Text: as §1, §2, §3, §4

In series [5] the test system is normal diploid fibroblasts BJ. The series is described as above. Conditions: BJ cells, 72 hours incubation, called GI50, read-out: Cell line tested/IC50 (μmol/L) BJ. The format is cell-based, human.
Text: as §1, §2, §3, §4

In series [6] the test system is osteosarcoma cell line HOS. The series is described as above. To be noted: HOS cells, 72 hours incubation, called GI50, read-out: Cell line tested/IC50 (μmol/L) HOS. The format is cell-based, human.
Text: as §1, §2, §3, §4

The test system of series [7] is Human diploid fibroblast BJ. Put plainly: In vitro cytotoxic activity (metabolisation of MTT). The format is cell-based. Conditions: 72 hours, BJ passage 18-22. Here is the method: In vitro Cytotoxic Activity (metabolisation of Mtt). MTT ([…]) assay is a standard colorimetric assay for evaluation of cytotoxicity. Mitochondrial dehydrogenase activity converts yellow MTT into violet formazan which is measured by means of spectrometry.
Human diploid fibroblast BJ (passage 18-22) were seeded into 96-well plate (5.000 cells per well). After 6 hours cultivation medium (DMEM with 5 g/l glucose, 2 mM glutamine, 100 U/ml penicillin, 100 mmg/ml streptomycin, 10% fetal calf serum and sodium bicarbonate) was replaced with the cultivation medium containing test compounds in concentration range of 0-200 μM. Highest concentration was adjusted if the solubility of the compound was limiting. Every concentration was tested in pentaplicate. MTT was added to the cells after 72 hours incubation (final concentration 0.5 mg/ml) and incubation continued for another 3 hours. MTT was solubilised by DMSO and absorbance at 570 nm was measured. Growth inhibition (GI) was estimated using the following equitation: GI=(mean A drug exposed wells−mean Ablank/mean Acontrol wells−mean Ablank)×100%. The GI20 value, the drug concentration causing 20% decrease in mitochondrial dehydrogenase activity, was calculated from the obtained dose response curves.

Setting [8] is: Homo sapiens, K562, K-562 cells.

In general, melting point refers to the temperature of the solid-liquid transition. As to `CN(C)c1nc2ncnc(NCc3ccco3)c2[nH]1` [Compound 61, 8-Dimethylamino-6-furfurylaminopurine], the melting point was in the range of 245 to 246 °C.
On to `Nc1nc2ncnc(NCc3cccc(O)c3O)c2[nH]1` [Compound 102], for which the IC50 in series [1], in series [2], in series [3] (K-562 cells), in series [4], in series [5] and in series [6] was more than 50 µmol/L each time. For the same compound, the GI20 in series [7] was more than 100 µM.
Take `Nc1nc2ncnc(NCc3ccc(O)c(O)c3)c2[nH]1` [Compound 103]: the IC50 in series [1], in series [2], in series [3] (K-562 cells), in series [4], in series [5] and in series [6] was more than 50 µmol/L each time. The compound further gave a GI20 in series [7] of more than 100 µM.
In the case of `COc1cccc(CNc2ncnc3nc(N)[nH]c23)c1O` [Compound 104], the IC50 in series [1], in series [2], in series [3] (K-562 cells), in series [4], in series [5] and in series [6] was more than 50 µmol/L each time. In series [7], the GI20 was more than 100 µM.
For `COc1ccc(CNc2ncnc3nc(N)[nH]c23)cc1O` [Compound 105], the IC50 in series [1], in series [2], in series [3] (K-562 cells), in series [4], in series [5] and in series [6] was more than 50 µmol/L throughout. The same compound had a GI20 in series [7] of more than 100 µM.
Turning to `Nc1nc2ncnc(Nc3ccccc3O)c2[nH]1` [Compound 114], the IC50 in series [1], in series [2], in series [3] (K-562 cells), in series [4], in series [5] and in series [6] was more than 50 µmol/L throughout. The compound further gave a GI20 in series [7] of more than 100 µM.
Take `Nc1nc2ncnc(Nc3cccc(O)c3)c2[nH]1` [Compound 115]: the IC50 in series [1], in series [2], in series [3] (K-562 cells), in series [4], in series [5] and in series [6] was more than 50 µmol/L throughout. This compound also showed a GI20 in series [7] of more than 100 µM.
Compound `COc1nc2ncnc(NCc3ccco3)c2[nH]1` [Compound 120, 6-Furfurylamino-8-methoxypurine] yielded a melting point of 196 to 198 °C. Further, the IC50 in series [1] (Homo sapiens, CCRF-CEM) is more than 50 µmol/L. The IC50 in series [2] (Homo sapiens) is more than 50 µmol/L. Also, the IC50 in series [3] (setting [8]) is more than 50 µmol/L. For the same compound, the IC50 in series [4] (Homo sapiens) is more than 50 µmol/L. Further, the IC50 in series [5] (Homo sapiens) was more than 50 µmol/L. The IC50 in series [6] (Homo sapiens) is more than 50 µmol/L.
`COc1nc2ncnc(NCC=C(C)C)c2[nH]1` [Compound 123, 8-Methoxy-6-(3-methylbut-2-en-1-ylamino)purine]: the melting point was in the range of 205 to 210 °C.
On to `CSc1nc2ncnc(NCC=C(C)C)c2[nH]1` [Compound 149, 6-(3-Methylbut-2-en-1-ylamino)-8-methylsulphanylpurine], for which the melting point was 96 to 99 °C.
Take `Oc1nc2ncnc(NCc3ccccc3)c2[nH]1` [Compound 167, 6-Benzylamino-8-hydroxypurine]: the melting point was in the range of 243 to 247 °C. Besides, the IC50 in series [1] (Homo sapiens, CCRF-CEM) was more than 50 µmol/L. Besides, the IC50 in series [2] (Homo sapiens) is more than 50 µmol/L. In addition, the IC50 in series [3] (setting [8]) was more than 50 µmol/L. Also, in series [4] (Homo sapiens), the IC50 is more than 50 µmol/L. In addition, the IC50 in series [5] (Homo sapiens) is more than 50 µmol/L. For the same compound, the IC50 in series [6] (Homo sapiens) is more than 50 µmol/L.
In turn, `N#Cc1nc2ncnc(NCc3ccccc3)c2[nH]1` [Compound 174, 6-Benzylamino-8-cyanopurine] yielded a melting point of 210 to 213 °C.
`NCc1nc2ncnc(NCc3ccccc3)c2[nH]1` [Compound 181, 8-Aminomethyl-6-benzylaminopurine] came in with a melting point of 187 to 189 °C. For the same compound, the IC50 in series [1] (Homo sapiens, CCRF-CEM) is more than 50 µmol/L. The IC50 in series [2] (Homo sapiens) was more than 50 µmol/L. Further, the IC50 in series [3] (setting [8]) was more than 50 µmol/L. For the same compound, the IC50 in series [4] (Homo sapiens) was more than 50 µmol/L. Also, the IC50 in series [5] (Homo sapiens) was more than 50 µmol/L. For the same compound, the IC50 in series [6] (Homo sapiens) was more than 50 µmol/L.
As for `O=C(O)c1nc2ncnc(NCc3ccccc3)c2[nH]1` [Compound 202, 6-Benzylaminopurine-8-carboxylic acid], the melting point lay in the range of 230 to 232 °C.
On to `CC(=CCNc1ncnc2nc(NCCCN)[nH]c12)CO` [Compound 210], for which the IC50 in series [1], in series [2], in series [3] (K-562 cells), in series [4], in series [5] and in series [6] was more than 50 µmol/L in each case. In series [7], this compound returned a GI20 of more than 100 µM.
`CC(C)=CCNc1ncnc2nc(NCCCN)[nH]c12` [Compound 211]: the IC50 in series [1], in series [2], in series [3] (K-562 cells), in series [4], in series [5] and in series [6] was more than 50 µmol/L throughout. In series [7], this compound returned a GI20 of more than 100 µM.
In turn, `OCCOc1nc2ncnc(NCc3ccco3)c2[nH]1` [Example 7 (18), 6-Furfurylamino-8-(2-hydroxyethyloxy)purine] came in with a melting point of 182 to 184 °C.
Same read-out and setting: with `CC(C)=CCNc1ncnc2nc(N(C)C)[nH]c12` [Example 7 (19), 8-Dimethylamino-6-(3-methylbut-2-en-1-ylamino)purine] the figure was 246 to 249 °C; with `C/C(=C\CNc1ncnc2nc(N(C)C)[nH]c12)CO` [Example 7 (23), (E)-8-Dimethylamino-6-(4-hydroxy-3-methylbut-2-en-1-ylamino)purine], 245 to 249 °C.
